This is an account of results in patent US7666901B2, “Analogs of 17-hydroxywortmannin as PI3K inhibitors” (Wyeth, priority 2004, dated 2010).

One experiment has as its system colon tumor cell lines. Briefly: Tumor cell growth assay, combination with CCI-779, colon lines. The class given is cell-based, human. The note with it: compound 4 at 0.1 μg/ml. The protocol:
(§1) Human tumor cell are all obtained from ATCC, and are cultured using standard cell culture methods. Cells are plated in 96-well culture plates at 1000 to 3000 cells per well. One day following plating, cells are treated with various doses of PI3K inhibitor Compound 4 or Compound 5 alone or with a low constant dose of MEK inhibitor 2-(2-chloro-4-iodoanilino)-N-(cycloprorylmethoxy-3,4-difluobenzamide) (1 μg/ml) or UO126 (5 μg/ml). UO126 is also known as 1,4-diamino-2,3-dicyano-1,4-bis[2-aminophenylthio]butadiene. In some experiments, cells are treated alone with various doses of the MEK inhibitor (2-(2-chloro-4-iodoanilino)-N-(cycloprorylmethoxy-3,4-difluobenzamide)), or HER2/neu inhibitor HKI-272, or mTOR inhibitor CCI-779, or with a low constant dose of Compound 4 (0.1 μg/ml). […] Three days after drug treatment, viable cell densities are determined by metabolic conversion (by viable cells) of the dye MTS, an established cell proliferation assay. […] The MTS assay results are read in a 96-well plate reader by measuring absorbance at 490 nm. The effect of each treatment is calculated as percent of control growth relative to the vehicle DMSO-treated cells grown in the same culture plate. […]

A further experiment deals with HCT116 colon tumor cells. Briefly: Tumor cell growth assay, combination with MEK inhibitors, HCT116. Format: cell-based, human. The note with it: MEK inhibitor at low constant dose. The protocol:
as §1

For experiment [1], the system named is DU145 prostrate tumor cells. Briefly: Tumor cell growth assay, combination with MEK inhibitor, DU145. The class given is cell-based, human. The protocol: as §1
Another experiment deals with MDA-MB-231 breast cells. Briefly: Tumor cell growth assay, combination with CCI-779, MDA-MB-231. Format: cell-based, human. Conditions: compound 4 at 0.1 μg/ml. The protocol: as §1
Another experiment deals with T1, Human TOR (Homo sapiens, UniProt P42345).
T1 construct: FLAG
Briefly: Human TOR (mTOR) kinase assay, DELFIA format. The class given is biochemical. An outline of the steps: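 Purified FLAG-TOR (800 ng/mL) phosphorylates His6-S6K ([…]) with […] ATP in Hepes pH 7.4 buffer containing MnCl2, 2 h at room temperature. Phospho-Thr389 S6K detected by DELFIA using Europium-labelled anti-P(T389)-p70S6K antibody; enzyme inhibition calculated from signal.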

In experiment [2] the test system is panel of seven colon tumor lines. Briefly: Tumor cell growth assay, combination with MEK inhibitor, colon panel. Format: cell-based, human. The protocol:
as §1

A further experiment concerns HCT116 cells. Briefly: Apoptosis assay (Apo-ONE Caspase-3/7), HCT116. Format: cell-based, human. The protocol: Cells are plated in a 96-well plate at a density of 3000 cells per well. 24 hr later cells are treated with single agent or combination as indicated. Apoptosis is measured at 24 hr and 48 hr post drug treatment by Apo-ONE Caspase-3/7 assay kit (cat # G7791, Promega Corp.) following the protocol provided by the vendor. Assay mix is added to cells and incubated at room temperature for 3 hours with gentle mixing using a plate shaker. The fluorescence of each well is read using the Victor Wallac Plate Reader. Each experimental plate contains blank wells (without cells) as background fluorescence that is subtracted from all wells to obtain experimental values. Data are expressed as relative fluorescent units (RFLU) or as Apo-ONE units.

Experiment [3] deals with colon carcinoma, NSCLC, DU145 and MDA231 cell lines. Briefly: Tumor cell growth assay, combination with MEK inhibitors, tumor line panel. The class given is cell-based, human. Conditions: HCT116, HT29, SW620, SW480, LS-174T, Caco2, Lovo, A549, H157, DU145, MDA231. As to the method: as §1
The test system of experiment [4] is PTEN-negative breast tumor cell lines. Briefly: Tumor cell growth assay, combination with CCI-779, PTEN-negative breast lines. The class given is cell-based, human. The note with it: compound 4 at 0.1 μg/ml. As to the method: as §1

In the case of `COC[C@H]1OC(=O)/C(=C/N(CCO)C(C)(C)C)C2=C(O)C(=O)C3=C([C@H](OC(C)=O)C[C@@]4(C)C3CC[C@@H]4O)[C@]21C` (stereo partly drawn) [Compound 4, (1E,4S,4aR,5R,6aS,7S)-1-{[tert-butyl(2-hydroxyethyl)amino]methylene}-7,11-dihydroxy-4-(methoxymethyl)-4a,6a-dimethyl-2,10-dioxo-1,2,4,4a,5,6,6a,7,8,9,9a,10-dodecahydroindeno[4,5-h]isochromen-5-yl acetate], the “growth inhibition in combination with mTOR inhibitor CCI-779” value in the experiment on colon tumor cell lines is “synergistically inhibited growth”; in the experiment with MDA-MB-231 breast cells, “synergistically inhibited growth”; in experiment [4], “additive growth inhibition”; in [4] (listed as compound 4), “synergistically inhibited growth”. Further, the “growth inhibition in combination with MEK inhibitors” value in the experiment with HCT116 colon tumor cells is listed as “synergistically inhibited growth”. Besides, the “growth inhibition in combination with MEK inhibitor 2-(2-chloro-4-iodoanilino)-N-(cycloprorylmethoxy-3,4-difluobenzamide)” value in [1] and in experiment [2] was “synergistic growth inhibition” throughout. The “TOR IC50” value was 16 µg/mL on Human TOR (Table 1) and greater than 10 µg/mL at Human TOR (Table 2). Besides, the “induction of apoptosis in combination with MEK inhibitor 2-(2-chloro-4-iodoanilino)-N-(cycloprorylmethoxy-3,4-difluobenzamide)” value in the experiment on HCT116 cells is listed as “synergistic induction of apoptosis”. In addition, the “growth inhibition in combination with MEK inhibitors UO126 and 2-(2-chloro-4-iodoanilino)-N-(cycloprorylmethoxy-3,4-difluobenzamide)” value in experiment [3] is given as “broad synergistic growth inhibition”.
